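Cells were grown in 96-well plates and exposed to each compound for 48 hours at five concentrations; endpoints were interpolated linearly between bracketing concentrations, or set to the highest concentration if not reached. TGI marks complete inhibition of growth.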
Test system: NCI-H226 lung
Assay: inhibition of tumour cell growth, NCI panel, 48 h

| Compound | TGI [µM] |
| --- | --- |
| Cc1cc(OP2(=O)NCc3ncccc3O2)ccc1Cl (stereo not given) | > 100 |
| O=C(O)c1cccc(S(=O)(=O)NN2C(=O)CSC2c2ccc(Cl)cc2Cl)c1 (stereo not given) | > 100 |

Test system: NCI-H23 lung
Assay: inhibition of tumour cell growth, NCI panel, 48 h

| Compound | TGI [µM] |
| --- | --- |
| CC(C)Oc1cccc(N2C(=NCc3c[nH]c4ccccc34)Nc3ccncc3S2(=O)=O)c1 | > 100 |
| COC(=O)c1c(C)cc(OC)c(C/C=C(\C)CCCc2coc(C=C(C)C)c2)c1OC | > 100 |
| Cc1cc(OP2(=O)NCc3ncccc3O2)ccc1Cl (stereo not given) | > 100 |
| O=C(O)c1cccc(S(=O)(=O)NN2C(=O)CSC2c2ccc(Cl)cc2Cl)c1 (stereo not given) | > 100 |

Test system: NCI-H460 lung
Assay: inhibition of tumour cell growth, NCI panel, 48 h

| Compound | TGI [µM] |
| --- | --- |
| CC(C)Oc1cccc(N2C(=NCc3c[nH]c4ccccc34)Nc3ccncc3S2(=O)=O)c1 | 77.6 |
| COC(=O)c1c(C)cc(OC)c(C/C=C(\C)CCCc2coc(C=C(C)C)c2)c1OC | > 100 |
| Cc1cc(OP2(=O)NCc3ncccc3O2)ccc1Cl (stereo not given) | > 100 |
| O=C(O)c1cccc(S(=O)(=O)NN2C(=O)CSC2c2ccc(Cl)cc2Cl)c1 (stereo not given) | > 100 |

Test system: NCI-H522 lung
Assay: inhibition of tumour cell growth, NCI panel, 48 h

| Compound | TGI [µM] |
| --- | --- |
| CC(C)Oc1cccc(N2C(=NCc3c[nH]c4ccccc34)Nc3ccncc3S2(=O)=O)c1 | 87.2 |
| COC(=O)c1c(C)cc(OC)c(C/C=C(\C)CCCc2coc(C=C(C)C)c2)c1OC | > 100 |
| O=C(O)c1cccc(S(=O)(=O)NN2C(=O)CSC2c2ccc(Cl)cc2Cl)c1 (stereo not given) | 91.4 |

Test system: NCI/ADR-RES ovarian
Assay: inhibition of tumour cell growth, NCI panel, 48 h

| Compound | TGI [µM] |
| --- | --- |
| CC(C)Oc1cccc(N2C(=NCc3c[nH]c4ccccc34)Nc3ccncc3S2(=O)=O)c1 | 97.5 |
| COC(=O)c1c(C)cc(OC)c(C/C=C(\C)CCCc2coc(C=C(C)C)c2)c1OC | > 100 |
| Cc1cc(OP2(=O)NCc3ncccc3O2)ccc1Cl (stereo not given) | > 100 |

Test system: OVCAR-3 ovarian
Assay: inhibition of tumour cell growth, NCI panel, 48 h

| Compound | TGI [µM] |
| --- | --- |
| CC(C)Oc1cccc(N2C(=NCc3c[nH]c4ccccc34)Nc3ccncc3S2(=O)=O)c1 | 56.1 |
| COC(=O)c1c(C)cc(OC)c(C/C=C(\C)CCCc2coc(C=C(C)C)c2)c1OC | > 100 |
| Cc1cc(OP2(=O)NCc3ncccc3O2)ccc1Cl (stereo not given) | > 100 |
| O=C(O)c1cccc(S(=O)(=O)NN2C(=O)CSC2c2ccc(Cl)cc2Cl)c1 (stereo not given) | > 100 |

Test system: OVCAR-4 ovarian
Assay: inhibition of tumour cell growth, NCI panel, 48 h

| Compound | TGI [µM] |
| --- | --- |
| CC(C)Oc1cccc(N2C(=NCc3c[nH]c4ccccc34)Nc3ccncc3S2(=O)=O)c1 | > 100 |
| COC(=O)c1c(C)cc(OC)c(C/C=C(\C)CCCc2coc(C=C(C)C)c2)c1OC | > 100 |
| Cc1cc(OP2(=O)NCc3ncccc3O2)ccc1Cl (stereo not given) | > 100 |

Test system: OVCAR-5 ovarian
Assay: inhibition of tumour cell growth, NCI panel, 48 h

| Compound | TGI [µM] |
| --- | --- |
| CC(C)Oc1cccc(N2C(=NCc3c[nH]c4ccccc34)Nc3ccncc3S2(=O)=O)c1 | > 100 |
| COC(=O)c1c(C)cc(OC)c(C/C=C(\C)CCCc2coc(C=C(C)C)c2)c1OC | > 100 |
| Cc1cc(OP2(=O)NCc3ncccc3O2)ccc1Cl (stereo not given) | > 100 |
| O=C(O)c1cccc(S(=O)(=O)NN2C(=O)CSC2c2ccc(Cl)cc2Cl)c1 (stereo not given) | > 100 |

Test system: OVCAR-8 ovarian
Assay: inhibition of tumour cell growth, NCI panel, 48 h

| Compound | TGI [µM] |
| --- | --- |
| CC(C)Oc1cccc(N2C(=NCc3c[nH]c4ccccc34)Nc3ccncc3S2(=O)=O)c1 | > 100 |
| COC(=O)c1c(C)cc(OC)c(C/C=C(\C)CCCc2coc(C=C(C)C)c2)c1OC | > 100 |
| Cc1cc(OP2(=O)NCc3ncccc3O2)ccc1Cl (stereo not given) | > 100 |
| O=C(O)c1cccc(S(=O)(=O)NN2C(=O)CSC2c2ccc(Cl)cc2Cl)c1 (stereo not given) | 30.2 |

Test system: PC-3 prostate
Assay: inhibition of tumour cell growth, NCI panel, 48 h

| Compound | TGI [µM] |
| --- | --- |
| CC(C)Oc1cccc(N2C(=NCc3c[nH]c4ccccc34)Nc3ccncc3S2(=O)=O)c1 | 83.4 |
| COC(=O)c1c(C)cc(OC)c(C/C=C(\C)CCCc2coc(C=C(C)C)c2)c1OC | > 100 |
| Cc1cc(OP2(=O)NCc3ncccc3O2)ccc1Cl (stereo not given) | > 100 |
| O=C(O)c1cccc(S(=O)(=O)NN2C(=O)CSC2c2ccc(Cl)cc2Cl)c1 (stereo not given) | > 100 |

Test system: RPMI-8226 leukemia
Assay: inhibition of tumour cell growth, NCI panel, 48 h

| Compound | TGI [µM] |
| --- | --- |
| CC(C)Oc1cccc(N2C(=NCc3c[nH]c4ccccc34)Nc3ccncc3S2(=O)=O)c1 | 30 |
| COC(=O)c1c(C)cc(OC)c(C/C=C(\C)CCCc2coc(C=C(C)C)c2)c1OC | > 100 |
| Cc1cc(OP2(=O)NCc3ncccc3O2)ccc1Cl (stereo not given) | > 100 |
| O=C(O)c1cccc(S(=O)(=O)NN2C(=O)CSC2c2ccc(Cl)cc2Cl)c1 (stereo not given) | > 100 |

Test system: RXF 393 renal
Assay: inhibition of tumour cell growth, NCI panel, 48 h

| Compound | TGI [µM] |
| --- | --- |
| CC(C)Oc1cccc(N2C(=NCc3c[nH]c4ccccc34)Nc3ccncc3S2(=O)=O)c1 | > 100 |
| Cc1cc(OP2(=O)NCc3ncccc3O2)ccc1Cl (stereo not given) | > 100 |
| O=C(O)c1cccc(S(=O)(=O)NN2C(=O)CSC2c2ccc(Cl)cc2Cl)c1 (stereo not given) | > 100 |

Test system: SF-268 CNS
Assay: inhibition of tumour cell growth, NCI panel, 48 h

| Compound | TGI [µM] |
| --- | --- |
| CC(C)Oc1cccc(N2C(=NCc3c[nH]c4ccccc34)Nc3ccncc3S2(=O)=O)c1 | > 100 |
| COC(=O)c1c(C)cc(OC)c(C/C=C(\C)CCCc2coc(C=C(C)C)c2)c1OC | > 100 |
| O=C(O)c1cccc(S(=O)(=O)NN2C(=O)CSC2c2ccc(Cl)cc2Cl)c1 (stereo not given) | > 100 |

Test system: SF-295 CNS
Assay: inhibition of tumour cell growth, NCI panel, 48 h

| Compound | TGI [µM] |
| --- | --- |
| CC(C)Oc1cccc(N2C(=NCc3c[nH]c4ccccc34)Nc3ccncc3S2(=O)=O)c1 | > 100 |
| COC(=O)c1c(C)cc(OC)c(C/C=C(\C)CCCc2coc(C=C(C)C)c2)c1OC | > 100 |
| Cc1cc(OP2(=O)NCc3ncccc3O2)ccc1Cl (stereo not given) | > 100 |
| O=C(O)c1cccc(S(=O)(=O)NN2C(=O)CSC2c2ccc(Cl)cc2Cl)c1 (stereo not given) | > 100 |

Test system: SF-539 CNS
Assay: inhibition of tumour cell growth, NCI panel, 48 h

| Compound | TGI [µM] |
| --- | --- |
| CC(C)Oc1cccc(N2C(=NCc3c[nH]c4ccccc34)Nc3ccncc3S2(=O)=O)c1 | > 100 |
| COC(=O)c1c(C)cc(OC)c(C/C=C(\C)CCCc2coc(C=C(C)C)c2)c1OC | > 100 |
| Cc1cc(OP2(=O)NCc3ncccc3O2)ccc1Cl (stereo not given) | > 100 |
| O=C(O)c1cccc(S(=O)(=O)NN2C(=O)CSC2c2ccc(Cl)cc2Cl)c1 (stereo not given) | 40 |

Test system: SK-MEL-2 melanoma
Assay: inhibition of tumour cell growth, NCI panel, 48 h

| Compound | TGI [µM] |
| --- | --- |
| CC(C)Oc1cccc(N2C(=NCc3c[nH]c4ccccc34)Nc3ccncc3S2(=O)=O)c1 | 51.3 |
| COC(=O)c1c(C)cc(OC)c(C/C=C(\C)CCCc2coc(C=C(C)C)c2)c1OC | > 100 |

Source: PubChem BioAssay (NCI)
